Measured values as given in patent US6355614B1, “Cyclic boroproline compounds” (Point Therapeutics, priority 1998, dated 2002).

Assay: Conformational equilibrium of open chain and cyclic forms in aqueous solution (from apparent Ki at equilibrium vs true Ki)
Type: physicochemical
Details: at equilibrium at pH 7.0
Source text: See FIG. 3 which is a diagram showing the structures of the open and cyclized forms of Xaa-boroPro inhibitors (conformational equilibrium of Xaa-boroproline inhibitors). The open, active, inhibitory chain species is favored at low pH while the cyclized structure is favored at neutral pH. The reaction is fully reversible: the open chain becomes predominant at low pH. The open chain to cyclic species reaction involves a trans to cis isomerization of the proline and the formation of a new N—B bond. […] G. Gutheil and W. W. Bachovchin, Separation of L-Pro-DL-boroPro into Its Component Diastereomers and Kinetic Analysis of Their Inhibition of Dipeptidyl Peptidase IV. A New Method for the Analysis of Slow, Tight-Binding Inhibition, Biochemistry 32, 8723-8731 (1993)).

O=C(C1CCCN1)N1CCCC1B(O)O (centres unmarked) [Pro-boroPro]
fraction existing as the open chain, inhibitory species: less than 1%

CC(C)C(N)C(=O)N1CCCC1B(O)O (centres unmarked) [Val-boroPro]
fraction existing as the open chain, inhibitory species: less than 0.1%
